Data on four compounds can be found in patent publication US20070043047A1, “Fungicidal mixtures for controlling rice pathogens” (BASF AKTIENGESELLSCHAFT, priority 2003, published 2007).

The test system of this assay is Corticium sasakii (syn. Rhizoctonia solani). Nature of the assay: Activity against sheath blight on rice caused by Corticium sasakii (protective spray, pot test). Conditions: for Efficacy in % of the untreated control: individual active compound, rice, evaluated after 11 days, untreated control 90% infection. Type of assay: in vivo. As for the experimental part:
The active compounds, separately or jointly, were prepared as a stock solution with 0.25% by weight of active compound in acetone or DMSO. 1% by weight of the emulsifier Uniperol® EL (wetting agent having emulsifying and dispersing action based on ethoxylated alkylphenols) was added to this solution, and the solution was diluted with water to the desired concentration.
Use example—Activity against sheath blight on rice caused by Corticium sasakii (syn. Rhizoctonia solani) Pots of rice plants of the cultivar “Tai-Nong 67” were sprayed to runoff point with an aqueous suspension having the concentration of active compound stated below. The next day, oat grains infected with Corticium sasakii were placed into the pots (in each case 5 grains per pot). The plants were then placed in a chamber at 26° C. and maximum atmospheric humidity. After 11 days, the sheath blight on the untreated but infected control plants had developed to such an extent that the infection could be determined visually in %.
Evaluation is carried out by determining the infected plants in percent. These percentages were converted into efficacies.
The efficacy (E) is calculated as follows using Abbot's formula: E=(1−α/β)·100 α corresponds to the fungicidal infection of the treated plants in % and β corresponds to the fungicidal infection of the untreated (control) plants in % An efficacy of 0 means that the infection level of the treated plants corresponds to that of the untreated control plants; an efficacy of 100 means that the treated plants are not infected.
The expected efficacies of the mixtures of active compounds are determined using Colby's formula [R. S. Colby, Weeds 15, 20-22 (1967)] and compared with the observed efficacies.
Colby's formula: E=x+y−x·y/100
E expected efficacy, expressed in % of the untreated control, when using the mixture of the active compounds A and B at the concentrations a and b x efficacy, expressed in % of the untreated control, when using active compound A at the concentration a y efficacy, expressed in % of the untreated control, when using active compound B at the concentration b

As to `CC1CCN(c2c(-c3c(F)cccc3Cl)c(Cl)nc3ncnn23)CC1` (single isomer, unassigned) [A], the “Efficacy in % of the untreated control” value (1 ppm in the spray liquor) worked out at 0% and the “Efficacy in % of the untreated control” value (4 ppm in the spray liquor) came to 0%.
Regarding `CC1CCN(c2c(-c3c(F)cccc3Cl)c(Cl)nc3ncnn23)CC1` (single isomer, unassigned) [B], the “Efficacy in % of the untreated control” value was 0% (1 ppm in the spray liquor) and 72% (4 ppm in the spray liquor). Moreover, under “summary of the test results”, the “Effectiveness against sheath blight, comparison in words” value is given as “activity comparable to that of compound I”.
Take `CC1CCN(c2c(-c3c(F)cc(F)cc3F)c(Cl)nc3ncnn23)CC1` [I, 5-chloro-7-(4-methylpiperidin-1-yl)-6-(2,4,6-trifluorophenyl)-[1,2,4]tri-azolo[1,5-a]pyrimidine]: the “Efficacy in % of the untreated control” value stood at 33% (1 ppm in the spray liquor) and 67% (4 ppm in the spray liquor).
For `CC(Cc1ccc(C(C)(C)C)cc1)CN1C[C@@H](C)O[C@@H](C)C1` (stereo partly drawn) [II, 4-[3-(4-tert-butylphenyl)-2-methylpropyl]-2,6-dimethylmorpholine] the same measures were 0% and 0%.
